Reference: patent US10442763B2, “EBNA1 inhibitors and methods using same” (priority 2015, dated 2019)

Target: T1, His-EBNA1 (DNA binding domain of EBNA1, amino acids 459-607) (Epstein-Barr virus, UniProt P03211)
T1 construct: made in house; host or cells: E. coli
Test: Inhibition of 5'-biotin-oPL4624 binding to His-EBNA1 using Alpha Screen technology
Procedure: Inhibition of 5′-Biotin-oPL4624 Binding to his-EBNA1 Using Alpha Screen Technology
Assays were performed using the DNA binding domain of EBNA1 (amino acids 459-607), which was His-tagged (His-EBNA1) and the self-complementary biotinylated (bt) oligonucleotide with the sequence 5′-bt-[…]-ATGCTACCC-3′ (bt-oPL4624; or 5′-bt-SEQ ID NO: 1). The protein was expressed in E. coli and purified according to Barwell, et al., 1995, J Biol Chem. 270:20556-9.). The bt-oPL4624 oligonucleotide was purchased from Integrated DNA Technologies, Inc (IDT). AlphaScreen donor, acceptor beads and white, opaque 384-well assay plates were purchased from PerkinElmer, Inc.
Assays contained 15 nM His-EBNA1, 0.2 nM bt-oPL4624, 5 μg/mL AlphaScreen streptavidin donor beads and nickel chelate acceptor beads, and a series of concentrations of test compound ranging from 3.2 nM to 100 μM in a total volume of 40 μL assay buffer (25 mM Tris, pH 7.2, 160 mM NaCl, 1 mM MgCl2). His-EBNA1 (30 nM) and bt-oPL4624 (0.4 nM) were preincubated with 10 μg/mL nickel chelate AlphaScreen acceptor bead, or 10 μg/mL streptavidin AlphaScreen donor bead, respectively, for 30 minutes at room temperature in assay buffer. Twenty microliters of His-EBNA1/acceptor bead mix and bt-oPL4624/donor bead mix were transferred to assay plates containing 0.4 μL of 1:3 serial dilutions of test compounds previously prepared in DMSO at concentrations ranging from 0.32 μM to 10 mM. Non-specific binding was determined with 5 μg/mL AlphaScreen acceptor bead in the absence of His-EBNA1. After 2 hr incubation at room temperature, the AlphaScreen signal was measured on the Envision plate reader (PerkinElmer, Inc.) at 680 nm excitation and 570 nm emission. Inhibition values at each concentration of test compound were determined by setting 100% equal to raw data values in the absence of EBNA1 and 0% equal to the raw data values in the presence of EBNA1. Nonlinear regression fits of the inhibition values to a one-site dose-response equation were performed using GraphPad Prism.

T1 sequence (P03211 459-607): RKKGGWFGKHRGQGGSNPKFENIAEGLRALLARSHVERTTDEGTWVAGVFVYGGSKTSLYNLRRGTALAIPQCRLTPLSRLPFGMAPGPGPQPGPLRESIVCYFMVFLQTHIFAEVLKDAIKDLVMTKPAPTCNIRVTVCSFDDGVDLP

Nc1ccc(C#Cc2cccc(C(=O)O)c2-c2ccc3cc[nH]c3c2)cc1S(N)(=O)=O [Entry 123]
IC50: 10 to 100 µM

CC(C)(C)OC(=O)N1CCC2(CC1)CC(=O)c1cc(C#Cc3cccc(C(=O)O)c3-c3ccc4cc[nH]c4c3)ccc1O2 [Entry 124]
IC50: 1 to 10 µM

Nc1nc(-c2cccc(C#Cc3cccc(C(=O)O)c3-c3ccc4cc[nH]c4c3)c2)cs1 [Entry 125]
IC50: 1 to 10 µM

Nc1nnc(-c2ccc(C#Cc3cccc(C(=O)O)c3-c3ccc4cc[nH]c4c3)cc2)s1 [Entry 127]
IC50: 1 to 10 µM

Nc1cc(-c2ccc(C#Cc3cccc(C(=O)O)c3-c3ccc4cc[nH]c4c3)cc2)[nH]n1 [Entry 128]
IC50: 1 to 10 µM

Nc1nc(-c2ccc(C#Cc3cccc(C(=O)O)c3-c3ccc4cc[nH]c4c3)cc2)c(C(=O)O)s1 [Entry 129]
IC50: < 1 µM

Nc1ncc(-c2ccc(C#Cc3cccc(C(=O)O)c3-c3ccc4cc[nH]c4c3)cc2)o1 [Entry 130]
IC50: 1 to 10 µM

CS(=O)(=O)Nc1nc(-c2ccc(C#Cc3cccc(C(=O)O)c3-c3ccc4cc[nH]c4c3)cc2)cs1 [Entry 131]
IC50: < 1 µM

CS(=O)(=O)Nc1nc(-c2cccc(C#Cc3cccc(C(=O)O)c3-c3ccc4cc[nH]c4c3)c2)cs1 [Entry 132]
IC50: < 1 µM

COC1CCN(Cc2nc(=O)c3cc(C#Cc4cccc(C(=O)O)c4-c4ccc5cc[nH]c5c4)ccc3[nH]2)CC1 [Entry 133]
IC50: 10 to 100 µM

O=C(O)c1cccc(C#Cc2ccc3[nH]c(CN4CCS(=O)(=O)CC4)nc(=O)c3c2)c1-c1ccc2cc[nH]c2c1 [Entry 134]
IC50: 1 to 10 µM

O=C(O)c1cccc(C#Cc2ccc3nc(C(F)(F)F)[nH]c(=O)c3c2)c1-c1ccc2cc[nH]c2c1 [Entry 135]
IC50: 1 to 10 µM

COc1cccc(C)c1NC(=O)c1cccc(C#Cc2cccc(C(=O)O)c2-c2ccc3cc[nH]c3c2)c1 [Entry 137]
IC50: 1 to 10 µM

O=C(Nc1ccc(N2CCS(=O)(=O)CC2)cc1)c1cccc(C#Cc2cccc(C(=O)O)c2-c2ccc3cc[nH]c3c2)c1 [Entry 138]
IC50: 1 to 10 µM

O=C(O)c1cccc(C#Cc2ccccc2)c1-c1cnc2[nH]ccc2c1 [Entry 139]
IC50: < 1 µM

O=C(O)c1cccc(C#Cc2ccc(F)cc2)c1-c1cnc2[nH]ccc2c1 [Entry 140]
IC50: 10 to 100 µM

COc1ccc(C#Cc2cccc(C(=O)O)c2-c2cnc3[nH]ccc3c2)cc1 [Entry 141]
IC50: 10 to 100 µM

O=C(O)c1cccc(C#Cc2ccc(OC3CCOCC3)cc2)c1-c1cnc2[nH]ccc2c1 [Entry 142]
IC50: 10 to 100 µM

O=C(O)c1cccc(C#Cc2ccc(OCCC3CCOCC3)cc2)c1-c1ccc2cc[nH]c2c1 [Entry 143]
IC50: 1 to 10 µM

O=C(O)c1cccc(C#Cc2ccc(OC3CCS(=O)(=O)CC3)cc2)c1-c1ccc2cc[nH]c2c1 [Entry 144]
IC50: 10 to 100 µM

O=C(O)c1cccc(C#Cc2ccc(CN3CCOCC3)cc2)c1-c1ccc2cc[nH]c2c1 [Entry 145]
IC50: 1 to 10 µM

CCN1CCN(Cc2ccc(C#Cc3cccc(C(=O)O)c3-c3ccc4cc[nH]c4c3)cc2)CC1 [Entry 146]
IC50: 10 to 100 µM

CN1CCN(Cc2ccc(C#Cc3cccc(C(=O)O)c3-c3ccc4cc[nH]c4c3)cc2)CC1 [Entry 147]
IC50: 10 to 100 µM

O=C(O)c1cccc(C#Cc2ccc(CN3CCS(=O)(=O)CC3)cc2)c1-c1ccc2cc[nH]c2c1 [Entry 148]
IC50: 1 to 10 µM

CN(C)CCN(C)Cc1ccc(C#Cc2cccc(C(=O)O)c2-c2ccc3cc[nH]c3c2)cc1 [Entry 149]
IC50: 10 to 100 µM

O=C(O)c1cccc(C#Cc2ccc(CN3CCC(CCO)CC3)cc2)c1-c1ccc2cc[nH]c2c1 [Entry 150]
IC50: 1 to 10 µM

O=C(O)c1cccc(C#Cc2ccc(CN3CCC(CO)CC3)cc2)c1-c1ccc2cc[nH]c2c1 [Entry 151]
IC50: 10 to 100 µM

CN1CCCN(Cc2ccc(C#Cc3cccc(C(=O)O)c3-c3ccc4cc[nH]c4c3)cc2)CC1 [Entry 152]
IC50: 1 to 10 µM

O=C(O)c1cccc(C#Cc2ccc(CN3CC(O)C3)cc2)c1-c1ccc2cc[nH]c2c1 [Entry 153]
IC50: 10 to 100 µM

O=C(O)c1cccc(C#Cc2ccc(CN3CCC(O)CC3)cc2)c1-c1ccc2cc[nH]c2c1 [Entry 154]
IC50: 10 to 100 µM

COC1CCN(Cc2ccc(C#Cc3cccc(C(=O)O)c3-c3ccc4cc[nH]c4c3)cc2)CC1 [Entry 155]
IC50: 10 to 100 µM

CN(C)Cc1ccc(C#Cc2cccc(C(=O)O)c2-c2ccc3cc[nH]c3c2)cc1 [Entry 156]
IC50: 10 to 100 µM

COCCN(C)Cc1ccc(C#Cc2cccc(C(=O)O)c2-c2ccc3cc[nH]c3c2)cc1 [Entry 157]
IC50: 10 to 100 µM

O=C(O)c1cccc(C#Cc2ccc(CN3CCC(F)(F)CC3)cc2)c1-c1ccc2cc[nH]c2c1 [Entry 158]
IC50: 1 to 10 µM

O=C(O)c1cccc(C#Cc2ccc(CN3CCCC(F)(F)C3)cc2)c1-c1ccc2cc[nH]c2c1 [Entry 159]
IC50: 1 to 10 µM

O=C(O)c1cccc(C#Cc2ccc(CN3CCc4ccccc4C3)cc2)c1-c1ccc2cc[nH]c2c1 [Entry 160]
IC50: 1 to 10 µM

CS(=O)(=O)N1CCN(Cc2ccc(C#Cc3cccc(C(=O)O)c3-c3ccc4cc[nH]c4c3)cc2)CC1 [Entry 161]
IC50: 10 to 100 µM

O=C(O)c1cccc(C#Cc2ccc(CN3CCCC(C(F)(F)F)C3)cc2)c1-c1ccc2cc[nH]c2c1 (stereo not shown) [Entry 162]
IC50: 1 to 10 µM

COC1CCN(Cc2ccc(C#Cc3cccc(C(=O)O)c3-c3ccc4cc[nH]c4c3)cc2)C1 (stereo not shown) [Entry 163]
IC50: 10 to 100 µM

CC(C)N1CCN(Cc2ccc(C#Cc3cccc(C(=O)O)c3-c3ccc4cc[nH]c4c3)cc2)CC1 [Entry 164]
IC50: 10 to 100 µM

O=C(O)c1cccc(C#Cc2ccc(CN3CCN(C4CCCCC4)CC3)cc2)c1-c1ccc2cc[nH]c2c1 [Entry 165]
IC50: 10 to 100 µM

O=C(O)c1cccc(C#Cc2ccc(CN3CCN(C(=O)C4CC4)CC3)cc2)c1-c1ccc2cc[nH]c2c1 [Entry 166]
IC50: 1 to 10 µM

O=C(O)c1cccc(C#Cc2ccc(CN3CCNCC3)cc2)c1-c1ccc2cc[nH]c2c1 [Entry 167]
IC50: 10 to 100 µM

O=C(O)c1cccc(C#Cc2ccc(CN3CCN(S(=O)(=O)c4ccccc4)CC3)cc2)c1-c1ccc2cc[nH]c2c1 [Entry 168]
IC50: 1 to 10 µM

O=C(O)c1cccc(C#Cc2ccc(CNC3CCS(=O)(=O)CC3)cc2)c1-c1ccc2cc[nH]c2c1 [Entry 169]
IC50: 10 to 100 µM

O=C(O)c1cccc(C#Cc2ccc(CN3CCN(C4CCCC4)CC3)cc2)c1-c1ccc2cc[nH]c2c1 [Entry 170]
IC50: 10 to 100 µM

CN(C)C(=O)N1CCN(Cc2ccc(C#Cc3cccc(C(=O)O)c3-c3ccc4cc[nH]c4c3)cc2)CC1 [Entry 171]
IC50: 10 to 100 µM

O=C(O)c1cccc(C#Cc2ccc(CN3CCN(c4cnccn4)CC3)cc2)c1-c1ccc2cc[nH]c2c1 [Entry 172]
IC50: 1 to 10 µM

O=C(O)c1cccc(C#Cc2ccc(CN3CCN(c4nccs4)CC3)cc2)c1-c1ccc2cc[nH]c2c1 [Entry 173]
IC50: 1 to 10 µM

Nc1nc2c(s1)C[C@@H](NCc1ccc(C#Cc3cccc(C(=O)O)c3-c3ccc4cc[nH]c4c3)cc1)CC2 [Entry 174]
IC50: 1 to 10 µM

Nc1nc2c(s1)C[C@H](NCc1ccc(C#Cc3cccc(C(=O)O)c3-c3ccc4cc[nH]c4c3)cc1)CC2 [Entry 175]
IC50: 1 to 10 µM

CN1CCN(Cc2ccc(C#Cc3cccc(C(=O)O)c3-c3cnc4[nH]ccc4c3)cc2)CC1 [Entry 176]
IC50: 10 to 100 µM

COC1CCN(Cc2ccc(C#Cc3cccc(C(=O)O)c3-c3cnc4[nH]ccc4c3)cc2)CC1 [Entry 177]
IC50: 100 to 1000 µM

COC1CCN(Cc2ccc(C#Cc3cccc(C(=O)O)c3-c3ccc4[nH]ccc4c3)cc2)CC1 [Entry 178]
IC50: 10 to 100 µM

CS(=O)(=O)N1CCN(Cc2ccc(C#Cc3cccc(C(=O)O)c3-c3ccc4[nH]ccc4c3)cc2)CC1 [Entry 179]
IC50: 10 to 100 µM

CS(=O)(=O)N1CCN(Cc2ccc(C#Cc3cccc(C(=O)O)c3-c3cnc4[nH]ccc4c3)cc2)CC1 [Entry 180]
IC50: 1 to 10 µM

O=C(O)c1cccc(C#Cc2ccc(CN3CCC(F)(F)CC3)cc2)c1-c1ccc2[nH]ccc2c1 [Entry 181]
IC50: 1 to 10 µM

CN1CCN(Cc2ccc(C#Cc3cccc(C(=O)O)c3-c3ccc4[nH]ccc4c3)cc2)CC1 [Entry 182]
IC50: 1 to 10 µM

CCS(=O)(=O)N1CCN(Cc2ccc(C#Cc3cccc(C(=O)O)c3-c3ccc4cc[nH]c4c3)cc2)CC1 [Entry 183]
IC50: 10 to 100 µM

O=C(O)c1cccc(C#Cc2ccc(OC3CCS(=O)(=O)CC3)cc2)c1-c1ccc2[nH]ccc2c1 [Entry 184]
IC50: 1 to 10 µM

O=C(O)c1cccc(C#Cc2ccc(OC3CCS(=O)(=O)CC3)cc2)c1-c1ccc2cn[nH]c2c1 [Entry 185]
IC50: 10 to 100 µM

O=C(O)c1cccc(C#Cc2ccc(COC3CCOCC3)cc2F)c1-c1ccc2cc[nH]c2c1 [Entry 186]
IC50: 1 to 10 µM

O=C(O)c1cccc(C#Cc2ccc(COC3CCS(=O)(=O)CC3)cc2F)c1-c1ccc2cc[nH]c2c1 [Entry 187]
IC50: 10 to 100 µM

CS(=O)(=O)N1CC2(CCN(Cc3ccc(C#Cc4cccc(C(=O)O)c4-c4ccc5cc[nH]c5c4)cc3)CC2)C1 [Entry 188]
IC50: 10 to 100 µM
